Measured values from patent publication US11219627B2, “Clearance of amyloid beta” (priority 2014, dated 2022).

What was measured:
[1] = system: patients with moderate, but not mild Alzheimer's disease; conditions: 36-week study; cited from earlier work
[2] = system: mild to moderate Alzheimer patients; conditions: 78-week study; cited from earlier work
[3] = liver microsome stability; format: in vitro ADME, Mouse
[4] = system: Primary rat cultured cortical neurons; conditions: cited from earlier work
patients with mild AD = conditions: 12 weeks; cited from earlier work
CaCo-2 cells = assay: in vitro permeability of a layer of CaCo-2 cells; format: in vitro ADME, human; conditions: for mean A−>B Papp (apparent permeability): test conc 50 μM
acetylcholinesterase [5] = target: T1, acetylcholinesterase (Homo sapiens, UniProt P22303); assay: acetylcholinesterase inhibition; format: biochemical
Text: This compound was first described in Han et al as a cholinesterase inhibitor in Bioorg. & Medicinal Chemistry Letters 1, 11 579-580 (1991).

Bv-2 microglial cells = assay: Abeta 1-42 oligomer clearance in microglial Bv-2 cell culture; format: cell-based; conditions: applied for 24 hours, 0.11 to 0.67 μM; oligomerized Aβ1-42 10 μM for 6 h
Description: Abeta oligomers were prepared using beta-amyioid (1-42) from American Peptide (Product #62-0-80). One aliquot was dissolved in an adequate volume of TBS (50 mM Tris-Buffer, 150 mM NaCl, pH=7.4) to achieve a final concentration of 1.7 mg/ml (corresponding to 340 μM). The solution was sonicated for 2 minutes and then diluted 1:2 in water to obtain a final concentration of 170 μM. Next, the Abeta was allowed to aggregate at 4′C for 48 hours. Prior to application, the solution was sonicated for another minute.
Bv-2 microglial cells were kept in culture medium (DMEM medium, 10% FBS, 2 mM glutamine, 1% Penc/Strep) until 80-90% confluency. Cells were maintained at 37° C., 95% humidity and 5% CO2. Afterwards, cells were seeded in culture medium on 24-well plates at a cell density of 1×10^5 cells per well. After 24 h, the medium was exchanged for the treatment medium (DMEM medium, 5% FBS, 2 mM glutamine). […] The medium was separated by affinity (removing monomers) and the oligomers not phagocytosed were disaggregated by HFIP treatment and measured by MSD. […]
The immune assay was carried out according to the manual and plates were read on the Sector Imager (MSD). Analyte levels were evaluated according to adequate Aβ peptide standards (MSD). […] Group differences are evaluated by one-way ANOVA.

Rat cortical neurons = assay: neurite network assessment with Aβ1-42 oligomers in cortical cell culture; format: cell-based
Description: Rat cortical neurons were cultured as described by Callizot et al (J Neurosci Res 2013, 91:706-716). On day 11 of culture, Aβ oligomer solution, 20 μM, was applied. The Aβ oligomer preparation, having an average weight of 90 kDa, prepared as described by Callizot et al (op cit) contained only diffusible species, not fibrils or protofibrils. Briefly, Aβ1-42 peptide at a concentration of 40 μM was dissolved in the culture medium, gently agitated for 3 days at 37° C. in the dark, and used immediately after dilution. SDL 11349 and BDNF (50 ng/ml) were dissolved in culture medium (maximum of 0.1% DMSO final concentration) then pre-incubated with primary cortical neurons for 24 h before the Aβ1-42 oligomer solution application.
The oligomers were incubated with the neurons and various concentrations of SDL 11349, or BDNF, 50 ng/ml, the positive control, for 24 hours, in 6 replicates per condition. Then the supernatant was removed and the neurons were fixed with a cold ethanol and acetic acid solution. The cells were permeabilized with 0.1% saponin and then incubated for 2 h with mouse monoclonal antibody […] microtubule-associated protein 2 (MAP-2). Subsequently, Alexa-Fluor 488 goat anti-mouse IgG was applied, and images were obtained and analyzed automatically.

[6] = system: CA1 pyramidal neurons in the dorsal hippocampus; assay: dendritic spine assessment after 5 days ip treatment; format: in vivo, mice
Description: Adult C57B16 mice, (8 weeks old) were administered vehicle or SDL 11349, 0.005, 0.03, 0.07, 0.1 or 0.2 mg/kg, ip, per day for five days prior to sacrifice after rapid anesthetization with isofluorane. Brain tissue was sectioned into […] slices from anterior to posterior extremes.
Ballistic dye labelling was performed, followed by laser-scanning confocal microscopy (Olympus FV1000) using a 63× objective (1.42 NA) to scan individually labelled neurons at high resolution (0.103×0.103×0.33 μm voxels). Target neurons were identified in the brain region of interest by anatomical location and cell morphology. Microscopy was performed blind to experimental conditions. A minimum of 5 samples per animal were measured for each segment.
Blind deconvolution (AutoQuant) was applied to raw three-dimensional digital images which were then analyzed for spine density and morphology by trained analysts. Individual spines were measured manually for (a) head diameter, (b) length, and (c) neck thickness from image Z-stacks using custom-built Afraxis ESP software. Each dendrite was analyzed by 3 independent analysts.
Automated image assignment software (C++) distributed images to analysts in a randomized manner and ensured that each analyst performed measurements of near equal numbers of dendrites per group. Analysts were blinded to all experimental conditions. […] For spine density and spine morphological classification, data across analysts were averaged to report data for each dendrite. Data population values (N's) were reported from dendrites collected equally from all mice.
Values are reported in tables and plots as group means±standard errors of the mean (SEMs). For all group comparisons of parametric values, statistical significance was determined using the analysis of variance test (ANOVA; SPSS). Post-hoc comparisons were assessed using the Student's t-test (2 tails). […]
Dendritic spine morphology was analyzed from samples taken from secondary apical dendrites, and secondary basal dendrites of CA1 pyramidal neurons in the dorsal hippocampus. […] A 50 μm segment was analyzed from each location.

acetylcholinesterase [7] = target: T1, acetylcholinesterase; conditions: read-out: IC50 for acetylcholinesterase inhibition; cited from earlier work
α7 nicotinic receptors = target: T2, α7 nicotinic receptors (Rattus norvegicus, UniProt Q05941); conditions: cited from earlier work
T2 construct: Primary cultured rat neurons can be depolarized by the application of 1.5 mM choline; endogenous in cells; host or cells: primary cultured rat neurons

mice = conditions: cited from earlier work
[8] = system: Mice with lesions of the nucleus basalis magnocellularis (nBm); conditions: cited from earlier work
[9] = stability in mouse plasma
[10] = 78-week study; cited from earlier work
γ-secretase [11] = conditions: cited from earlier work
γ-secretase [12] = conditions: in vivo; cited from earlier work
[13] = system: adrenal chromaffin and human neuroblastoma cells; conditions: cited from earlier work
γ-secretase [14] = conditions: human, in vivo; cited from earlier work

T2 sequence (Q05941 23-502): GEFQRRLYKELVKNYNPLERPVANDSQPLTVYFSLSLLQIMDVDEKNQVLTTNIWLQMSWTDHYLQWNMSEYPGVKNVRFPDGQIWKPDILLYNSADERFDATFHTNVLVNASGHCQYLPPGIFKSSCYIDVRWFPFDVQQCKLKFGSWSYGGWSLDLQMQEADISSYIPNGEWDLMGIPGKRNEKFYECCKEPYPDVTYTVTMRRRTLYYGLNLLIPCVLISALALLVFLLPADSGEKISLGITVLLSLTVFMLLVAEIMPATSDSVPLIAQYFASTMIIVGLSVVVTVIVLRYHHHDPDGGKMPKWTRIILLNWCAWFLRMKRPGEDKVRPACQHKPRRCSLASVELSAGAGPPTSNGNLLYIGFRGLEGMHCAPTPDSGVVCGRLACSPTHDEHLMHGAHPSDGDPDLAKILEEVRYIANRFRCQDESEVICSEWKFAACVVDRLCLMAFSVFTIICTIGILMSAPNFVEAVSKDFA
T1 sequence (P22303 32-614, species assumed): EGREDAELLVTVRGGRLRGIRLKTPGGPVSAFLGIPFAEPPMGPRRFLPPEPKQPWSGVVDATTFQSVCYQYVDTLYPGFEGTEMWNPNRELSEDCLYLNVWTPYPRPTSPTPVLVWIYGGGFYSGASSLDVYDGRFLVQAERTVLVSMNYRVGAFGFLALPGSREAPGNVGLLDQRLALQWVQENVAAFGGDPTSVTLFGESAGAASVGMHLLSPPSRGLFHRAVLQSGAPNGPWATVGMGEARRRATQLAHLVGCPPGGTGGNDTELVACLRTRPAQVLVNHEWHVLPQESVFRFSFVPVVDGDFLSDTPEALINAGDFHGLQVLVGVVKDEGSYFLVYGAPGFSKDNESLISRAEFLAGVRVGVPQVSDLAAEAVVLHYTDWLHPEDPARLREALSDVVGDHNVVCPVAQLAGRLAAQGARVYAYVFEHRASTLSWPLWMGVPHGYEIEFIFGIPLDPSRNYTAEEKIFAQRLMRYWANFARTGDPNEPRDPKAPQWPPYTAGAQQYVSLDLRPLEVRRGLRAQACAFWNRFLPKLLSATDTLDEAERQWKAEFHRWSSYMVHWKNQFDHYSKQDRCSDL

In the case of `Oc1c(I)cc(Cl)c2cccnc12` [Clioquinol], the ADAS-cog [1] is given as “decreased deterioration on the ADAS-cog”.

For `O[C@H]1[C@H](O)[C@@H](O)[C@H](O)[C@@H](O)[C@@H]1O` [ELND005, scyllo-inositol], the “CSF Aβ and ventricular volume” value [2] is listed as “Significant decreases in CSF Aβ and increases in ventricular volume” and the “cognitive or behavioral tests” value [2] is listed as “no benefit on any cognitive or behavioral test”.

With `COc1ccc2c3c1O[C@H]1C[C@@H](O)C=C[C@@]31CCN(C)C2` [Galanthamine HBr] the “NADPH-dependent T1/2 (half-life)” value ([3]; 5.0 μM, Mouse) was >1 h and the “NADPH-free T1/2 (half-life)” value ([3]; 5.0 μM, Mouse) was >1 h.

In the case of `CN1CCCC1c1cccnc1` (centres unmarked) [Nicotine], the “protection against Aβ plus glutamate toxicity” value [4] is given as “protective against Aβ plus glutamate toxicity”.

In the case of `CN(C)Cc1ccc2c(Cl)cc(Cl)c(O)c2n1` [PBT2], the “CSF Aβ42” value (patients with mild AD) is listed as “decreased significantly”.

For `CNC(=C[N+](=O)[O-])NCCSCc1ccc(CN(C)C)o1` [Ranitidine], the “mean A−>B Papp (apparent permeability)” value (CaCo-2 cells) was 1.1 10^−6 cm s^−1.

For `CCCCNC(=O)O[C@H]1C=C[C@@]23CCN(C)Cc4ccc(OC)c(c42)O[C@H]3C1` [SDL 11349, n-butylcarbamate derivative (4aS,6R,8aS)-5,6,9,10,11,12-hexahydro-3-methoxy-11-methyl-4aH-[1]benzofuro[3a,3,2-ef][2]benzazepin-6-ol], the “enzymatic activity relative to galantamine” value (acetylcholinesterase [5]) was “about 36%”, the predicted oral bioavailability (CaCo-2 cells; based on in vitro CaCo-2 permeability) was 80% and the “mean A−>B Papp (apparent permeability)” value (CaCo-2 cells) was 20.8 10^−6 cm s^−1. The “NADPH-free T1/2 (half-life)” value ([3]; 5.0 μM, Mouse) was >1 h, the “half-life in liver microsomes” value ([3]; in-vitro preparation) was “greater than 60 minutes” and the microsomal CLint at 5 μM ([3]; liver microsomes, 5.0 μM, Mouse, read-out: NADPH-dependent CLint (microsomal intrinsic clearance)) was 23.5 µL/min/mg. The “reduction of β-amyloid oligomer concentration in the medium” value (Bv-2 microglial cells) was 38-40%, the “effect on Aβ oligomer-induced loss of neurite network” value (Rat cortical neurons; 1 μM, Aβ oligomer 20 μM, 24 h) was “blocked the toxic effect of the Aβ oligomers” and the “total spine density, basal samples” value ([6]; 0.005-0.2 mg/kg ip per day for five days) was “no effect”. The “total spine density, apical dendritic samples, versus vehicle” value ([6]; 0.005-0.2 mg/kg ip per day for five days, all dose groups) was “statistically significant difference (p<0.05, 2-tailed t-test) or trend (p<.01) compared to vehicle controls”, the “mature spines on apical dendrites of CA1 pyramidal neurons” value ([6]; treatment for 5 days) was “specifically increases mature spines” and the IC50 (acetylcholinesterase [7]) was 1090 nM. The “enhancement of the depolarization caused by choline” value (α7 nicotinic receptors; 1 μM, 1.5 mM choline) was 15.9±2.1%, the “enhancement in presence of FK-1, antibody to the galantamine recognition site” value (α7 nicotinic receptors) was “blocked” and the “dose at which decreased motility appeared” value (mice) was > 30 mg/kg. The “lethality (no lethality up to)” value (mice) was > 100 mg/kg, the adverse effects observed (mice; doses of 50-100 mg/kg) was “wobbly and off-balance with rapid heart rate still present at 4 hours, but were recovered at 24 hours” and the “additional time remaining in the lighted compartment versus saline” value ([8]; given during training, optimal performance) was “about 100 seconds”. The “best dose for memory enhancement” value ([8]; passive avoidance) was 0.5 mg/kg, the “plasma concentrations at two hours compared with galantamine” value [9] was “slightly lower than those of galantamine” and the “stability in mouse plasma” value [9] was “stable for greater than two hours”.

For `NCCCS(=O)(=O)O` [Tramiprosate], the ADAS-cog [10] is given as “trend towards improvement on the ADAS-cog” and the hippocampal volume [10] is given as “reduction of hippocampal volume loss”.

In the case of `NC(=O)[C@@H](CCC(F)(F)F)N(Cc1ccc(-c2ncon2)cc1F)S(=O)(=O)c1ccc(Cl)cc1` [avagacestat], the “CSF Aβ40” value (γ-secretase [11]; human, in vivo) is given as “effectively reduces CSF Aβ40” and the conversion to dementia (γ-secretase [11]; prodromal Alzheimer's disease, reduced CSF Aβ42) is given as “no reduction in conversion to dementia”.

For `CC(C)[C@H](O)C(=O)N[C@@H](C)C(=O)N[C@@H]1C(=O)N(C)CCc2ccccc21` [semagacestat], the “CSF Aβ” value (γ-secretase [12]) is given as “potently decreased CSF Aβ” and the “reason for termination of Phase III trials” value (γ-secretase [12]) is given as “poorer performance in treated than placebo patients, and an increased incidence of skin cancer”.

In the case of `Nc1c2c(nc3ccccc13)CCCC2` [tacrine], the neuroprotective effect [13] is given as “did not occur”.

In the case of `C[C@@H](C(=O)O)c1ccc(-c2ccccc2)c(F)c1` [tarenflurbil], the “Phase III outcome” value (γ-secretase [14]) is listed as “failed in Phase III”.

B1: BDNF: brain-derived neurotrophic factor, positive control, gold standard of the neurite assay (protein, UniProt P23560 19-247, looked up)
Neurotrophic factor BDNF …: APMKEANIRGQGGLAYPGVRTHGTLESVNGPKAGSRGLTSLADTFEHVIEELLDEDQKVRPNEENNKDADLYTSRVMLSSQVPLEPPLLFLLEEYKNYLDAANMSMRVRRHSDPARRGELSVCDSISEWVTAADKKTAVDMSGGTVTVLEKVPVSKGQLKQYFYETKCNPMGYTKEGCRGIDKRHWNSQCRTTQSYVRALTMDSKKRIGWRFIRIDTSCVCTLTIKRGR
In the case of B1, the “effect on Aβ oligomer-induced loss of neurite network” value (Rat cortical neurons; 50 ng/ml, positive control) is reported as “preserves the neurite network”.
